Earlier results in patent US20120252687A1, “Scoring Function Penalizing Compounds Which Desolvate Charged Protein Side Chains Structure” (priority 2011, published 2012).

Columns and labels:
Cdk2 = Cdk2 (Homo sapiens, UniProt P24941); conditions: PDB complex
Jnk = Jnk (Homo sapiens, UniProt P53779); conditions: PDB complex
Chain of Jnk (P53779 whole entry): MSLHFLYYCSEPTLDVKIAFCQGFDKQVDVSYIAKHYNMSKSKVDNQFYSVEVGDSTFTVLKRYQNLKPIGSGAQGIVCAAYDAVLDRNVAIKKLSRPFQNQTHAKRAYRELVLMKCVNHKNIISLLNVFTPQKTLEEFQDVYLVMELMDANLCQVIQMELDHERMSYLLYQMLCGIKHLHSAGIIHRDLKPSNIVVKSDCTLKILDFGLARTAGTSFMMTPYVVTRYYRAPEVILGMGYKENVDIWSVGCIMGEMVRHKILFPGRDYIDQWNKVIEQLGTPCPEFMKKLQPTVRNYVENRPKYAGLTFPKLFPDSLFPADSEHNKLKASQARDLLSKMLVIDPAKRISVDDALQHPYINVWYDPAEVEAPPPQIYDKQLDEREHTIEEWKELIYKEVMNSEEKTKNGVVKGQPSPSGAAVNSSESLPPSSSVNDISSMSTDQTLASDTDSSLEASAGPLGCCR

dG (experimental free energy of binding) (Cdk2)	dG (experimental free energy of binding) (Jnk)	Compound
−8.5	–	NS(=O)(=O)c1ccc(Nc2cn3cc(C(=O)c4c(Cl)cccc4Cl)ccc3n2)cc1 [Cdk2_1ykr]
–	−7.5	N#Cc1c(NC(=O)c2cccc3ccccc23)sc2c1CCN(C(=O)CCN1CCCCC1)C2 [Jnk_2o0u]
